Measured values reported in patent publication US20150283233A1, “Compositions and Methods for Enhancing Immune Responses” (Gencia Corporation, priority 2012, published 2015).

Test system: MHC I
Test: MHC I western blot of orthotopic MiaPaca-2 pancreatic xenografts, with or without gemcitabine
Type: in vivo, BALB/c nude mouse
Settings: gemcitabine only, 40 mg/kg every 3 days, orthotopic MiaPaca-2 tumors, FIG. 11
Procedure: MiaPaCa-2 tumor cells was maintained in vitro as monolayer culture in DMEM medium supplemented with 10% fetal bovine serum, 2.5% horse serum, 100 Um′ penicillin and 100 μg/ml streptomycin, and 2 mM L-glutamine at 37° C. in an atmosphere of 5% CO2 in air. The tumor cells were routinely subcultured twice weekly by trypsin-EDTA treatment. Cells in an exponential growth phase will be harvested and counted for tumor inoculation. Before orthotopic implantation, 5×10^6 MiaPaca-2 cells in 50 μl PBS mixed with 50 μl Matrigel were inoculated subcutaneously at the right flank of each BALB/c nude mouse. Upon subcutaneous tumor size reaching about 500 mm^3, tumors were collected for orthotopic implantation.
For orthotopic MiaPaca-2 xenografts, mice were anesthetized by intraperitoneal injection of pentobarbital sodium (50 mg/kg) before tumor inoculation. The abdominal skin was sterilized and laparotomy was performed to expose the pancreas. Each mouse was inoculated with a subcutaneous MiaPaca-2 tumor fragment (2-3 mm in diameter) in the subcapsular region of the pancreas for tumor development. The abdominal wall was closed using No. 6 suture and then sterilized with povidone iodine solution. The day of surgery was denoted as Day 0 (D0). The treatments with vehicle, gemcitabine only, PTD-TFAM only, and PTD-TFAM in combination with gemcitabine were started at 10 days post tumor fragment inoculation. […]

Nc1ccn([C@@H]2O[C@H](CO)[C@@H](O)C2(F)F)c(=O)n1 [Gemcitabine]
MHC I expression: decreased
